Assay [1] relates to C.albicans CCARM 14020. The assay is classed as cell-based, Candida albicans. The settings on record: CCARM 14020, 24 h. Here is the method:
(§1) To determine the candidacidal activity of the peptides, we used Candida strains obtained from the Culture collection of antimicrobial resistant microbes at Seoul Women’s University in Korea. These included three Candida albicans (CCARM 14020, 14021, 14022), Candida guillermondi and Candida tropicalis. In addition, Candida albicans SC5413 was kindly provided by Dr Jeong-Yoon Kim at the Department of Microbiology & Molecular Biology, Chungnam University, Korea. Yeast were cultured overnight at 30°C in 10 ml of yeast extract-peptone-dextrose (YPD) broth (Qbiogene), then diluted in 10 ml of YPD broth to OD600 = 0.2 and grown for an additional 4 h with shaking at 30°C until OD600 = 0.8 in order to obtain mid-log phase cultures. The peptides (Hst 5, P113, HHP1, HHP2, PH1, PH2, di-PH1, di-PH2, WP1, di-WP2, di-15Hc and di-18Hc) in this study were synthesized by using standard solid-phase synthesis protocols and were purified by reversed-phase high-performance liquid chromatography at Anygen Inc. (Korea). FITC-labeled peptides (F-Hst5, F-P113, F-HHP1, F-di-PH2, F-di-WP2 and F-di-18Hc) were also synthesized by 6-aminohexnoic acid linker at Anygen (Korea) for confocal experiments.
(§2) The candidacidal activities of the peptides were tested by using standard microdilution plate assays, radial diffusion assays and broth dilution assay slightly modified from the procedure recommended by the National Committee for Clinical Laboratory Standards. For the candidacidal assays, C. albicans cells were grown in YPD medium and washed twice with 10 mM sodium phosphate buffer (NaPB; Na2HPO4, NaH2PO4, pH 7.4). The cells (1 x 10^6) were then mixed with different concentrations of peptides and incubated at 30°C with constant shaking for 60 min. For energy depletion experiments, cells were pre-incubated with 10 mM NaPB containing 5 mM NaN3 at 30°C for 60 min before the addition of peptides. The cell suspensions were diluted in 10 mM NaPB and aliquots of 500 cells were spread onto YPD agar plates then incubated for 24 h at 30°C to visualize the surviving colonies. Cell survival was expressed as a percentage of that for the control, and the loss of viability was calculated as [1 x (number of colonies from peptide-treated cells/number of colonies from control cells)] x 100. Candidacidal assays were performed in triplicate. For the radial diffusion assay, C. albicans cells were grown in YPD medium overnight and washed twice with 10 mM NaPB. Washed yeast-phase C. albicans cells (1 x 10^6 CFU) were trapped in thin underlay gels containing 9 mM sodium phosphate, 1 mM sodium citrate buffer, 1% (wt/vol) agarose (A6013; Sigma), and 0.3 mg of Sabouraud dextrose broth (Difco)/ml. After incubation at 37°C for 3 h, a 10 ml overlay gel of 1% agarose and 6% Sabouraud dextrose broth was poured on the underlay gel and then the plates were incubated overnight at 37°C. The clear-zone diameters were measured to the nearest 0.1 mm and graphed against the peptide concentration. Zone diameters were expressed in units (0.1 mm = 1 unit). For the broth dilution assay, the Candida strains were cultured in LYM broth for 18 h at 30°C. The numbers of yeasts were counted using a hemocytometer. Stock peptide solutions were prepared to a concentration of 320 μg/ml in distilled water, and were then serially diluted twofold, to 5 μg/ml. 100 μl aliquots of the diluted culture media containing candida cells (1 x 10^3) were dispensed into the wells of 96-well polypropylene microtiter plates (Costar 3879, Corning, NY), to which peptide solution (11 μl) was then added. In the experiments conducted to assess the candidacidal activity of peptides in the presence of salt, we used LYM supplemented with 150 mM NaCl for the culture medium, which was mixed with the peptide solution. The antifungal activities were evaluated after 24 h of incubation at 30°C by the observation of visible turbidity the wells. […]

Assay [2] concerns C.albicans CCARM 14021. The assay is classed as cell-based, Candida albicans. As for the experimental part:
as §1, §2

Assay [3] has as its system C.albicans CCARM 14022. The assay is classed as cell-based, Candida albicans. Here is the method:
as §1, §2

In assay [4] the test system is C.albicans SC5413. The assay is classed as cell-based, Candida albicans. The note with it: SC5413, 24 h. As for the experimental part: as §1, §2
Assay [5] deals with C. guilliermondi CCARM 14018. The assay is classed as cell-based. The note with it: CCARM 14018, 24 h. As for the experimental part:
as §1, §2

Assay [6] relates to all tested Candida strains. The assay is classed as cell-based. The settings on record: 4 h. Here is the method:
as §1, §2

[7] abbreviates: broth dilution, LYM broth, 24 h at 30°C, interval a–b.

Where two headings read alike, the source gives them in different places. Where a SMILES comes first, the peptide text is derived from it. Bridges are numbered along the chain shown (N, C = ends). Roman numbers before positions name the chains, in order. Where no end group is shown, it is not given here.

Consider AKRHHGLNCAKGVLA-NH2 [PH1], for which the MICs in assay [1] fell in the range of 16 to 32 µg/mL; in assay [2] (CCARM 14021, 24 h), 8 to 16 µg/mL; in assay [3] (CCARM 14022, 24 h), 8 to 16 µg/mL; in assay [4], 16 to 32 µg/mL.

WLNAKRHHGYKRKFH-NH2 [WP1]: the MICs in assay [1] is 4 to 8 µg/mL; in assay [2] (CCARM 14021, 24 h), 8 to 16 µg/mL; in assay [3] (setting [7]) it was 32< μg/ml; in assay [4], 4 to 8 µg/mL.

Regarding AKRHHGLNCAKFH-NH2 [PH2], the MICs lay within 1 to 2 µg/mL in assay [1]; 1 to 2 µg/mL in assay [2] (CCARM 14021, 24 h); 8 to 16 µg/mL in assay [3] (CCARM 14022, 24 h); 1 to 2 µg/mL in assay [4].

As for WLNALLHHGYKRKFH-NH2 [HHP1], the MICs was in the range of 2 to 4 µg/mL in assay [1]; 2 to 4 µg/mL in assay [2] (CCARM 14021, 24 h); 4 to 8 µg/mL in assay [3] (CCARM 14022, 24 h); 2 to 4 µg/mL in assay [4]; 1 to 2 µg/mL in assay [5]. The MIC values in assay [6] is 2 to 4 µg/mL.

`CC(C)C[C@H](NC(=O)CNC(=O)[C@H](Cc1c[nH]cn1)NC(=O)[C@H](Cc1c[nH]cn1)NC(=O)[C@H](CCCNC(=N)N)NC(=O)[C@H](CCCCN)NC(=O)[C@H](C)N)C(=O)N[C@@H](CC(N)=O)C(=O)N[C@@H](CSSC[C@H](NC(=O)[C@H](CC(N)=O)NC(=O)[C@H](CC(C)C)NC(=O)CNC(=O)[C@H](Cc1c[nH]cn1)NC(=O)[C@H](Cc1c[nH]cn1)NC(=O)[C@H](CCCNC(=N)N)NC(=O)[C@H](CCCCN)NC(=O)[C@H](C)N)C(=O)N[C@@H](C)C(=O)N[C@@H](CCCCN)C(=O)NCC(=O)N[C@H](C(=O)N[C@@H](CC(C)C)C(=O)N[C@@H](C)C(N)=O)C(C)C)C(=O)N[C@@H](C)C(=O)N[C@@H](CCCCN)C(=O)NCC(=O)N[C@H](C(=O)N[C@@H](CC(C)C)C(=O)N[C@@H](C)C(N)=O)C(C)C` [di-PH1] (I: H-AKRHHGLNCAKGVLA-NH2 / II: H-AKRHHGLNCAKGVLA-NH2; disulfide I:9-II:9 (inferred); N-terminus assumed): the MICs in assay [1] fell in the range of 16 to 32 µg/mL; in assay [2] (CCARM 14021, 24 h), 4 to 8 µg/mL; in assay [3] (CCARM 14022, 24 h) it was 4 to 8 µg/mL; in assay [4], 16 to 32 µg/mL.

Consider ALLHHGYKRKFH-NH2 [HHP2], for which the MICs in assay [1] was 8 to 16 µg/mL; in assay [2] (setting [7]) it was 32< μg/ml; in assay [3] (setting [7]) it was 32< μg/ml; in assay [4], 16 to 32 µg/mL.
